Consider 13 compounds from patent US5086069A, “Anti-thrombotic peptide and pseudopeptide derivatives” (Rorer Pharmaceutical Corporation, priority 1990, dated 1992).

The target in assay [1] is T1, fibrinogen binding to thrombin-stimulated platelets (GPIIb/IIIa fibrinogen receptor) (Homo sapiens, UniProt P05106+P08514).
T1 construct: endogenous in cells; host or cells: washed platelets stimulated with human alpha-thrombin
Briefly: Inhibition of Radiolabeled (125I) Fibrinogen Binding Assay. The conditions noted are these: read-out: Inhibition of 125I-Fibrinogen (binding to) Platelet IC50. How it is done:
I. Inhibition of Radiolabeled (^125 I) Fibrinogen Binding Assay, which is essentially based on the method described in Proc. Natl. Acad. Sci. USA Vol. 83, pp. 5708-5712, Aug. 1986, and is as follows.
Platelets are washed free of plasma constituents by the albumin density-gradient technique. In each experimental mixture platelets in modified Tyrode's buffer are stimulated with human α-thrombin at 22°-25° C. for 10 minutes (3.125×10" platelets per liter and thrombin at […]). Hirudin is then added at a 25-fold excess for 5 minutes before addition of the radiolabeled ligand and any competing ligand. After these additions, the final platelet count in the mixture is 1×10"/liter. After incubation for an additional 30 minutes at 22°-25° C., bound and free ligand are separated by centrifuging 50 μl of the mixture through 300 μl of 20% sucrose at 12,000 xg for 4 minutes. The platelet pellet is then separated from the rest of the mixture to determine platelet-bound radioactivity. Nonspecific binding is measured in mixtures containing an excess of unlabeled ligand. When binding curves are analyzed by Scatchard analysis, nonspecific binding is derived as a fitted parameter from the binding isotherm by means of a computerized program. To determine the concentration of each inhibitory compound necessary to inhibit 50% of fibrinogen binding to thrombin-stimulated platelets (IC50), each compound is tested at 0.176 μgmol/liter (60 μg/ml). The IC50 is derived by plotting residual fibrinogen binding against the logarithm of the sample compound's concentration.

Another assay concerns Human Platelets. Briefly: Inhibition of Fibrinogen-Mediated Platelet Aggregation. It counts as cell-based. The conditions noted are these: thrombin-activated human platelets; for inhibition at 25 µM / Inhibition of Fibrinogen Mediated Platelet Aggregation % inhibition at 25 μM: 25 μM compound; for pIC50: human fibrinogen added, rate of aggregation. On the procedure: II. Inhibition of Fibrinogen--Mediated Platelet Aggregation, which is essentially based on the method described in Blood, Vol. 66, No. 4, Oct. 1985, pp. 846-952, and is as follows.
Human Platelets were isolated from freshly drawn whole blood and were suspended in 0.14 mol/L NaCl, 2.7 mmol/L […], 12 mmol/L NaHCO3, 0.42 mmol/L Na2 HPO4, 0.55 mmol/L glucose, and 5 mmol/L Hepes, pH 7.35 at 2×10^8 platelets/ml. The suspension was incubated at 37° C. An aliquot of 0.4 ml of platelet suspension was activated by human thrombin at a final concentration of 2 μg/ml of thrombin for one minute. After one minute the reaction was stopped by a thrombin inhibitor. Serial dilution of the compound being tested was then added to the activated platelet, the reaction was allowed to proceed for one minute, followed by the addition of human fibrinogen at a final concentration of […] of fibrinogen. Platelet aggregation was then recorded by an aggregometer. Rate of aggregation was used to calculate IC50.

Where [2] appears, read: thrombin-stimulated washed platelets, 22-25° C.
Where [3] appears, read: no inhibition at concentrations of 50 μM or lower.

SMILES strings stand for the structures. pIC50: −log10 of the molar value. Read-outs that look alike come from different tables or passages of the source. A value given as a limit tells only on which side of the number the result lay.

T1 sequence (P08514 32-887 limits assumed): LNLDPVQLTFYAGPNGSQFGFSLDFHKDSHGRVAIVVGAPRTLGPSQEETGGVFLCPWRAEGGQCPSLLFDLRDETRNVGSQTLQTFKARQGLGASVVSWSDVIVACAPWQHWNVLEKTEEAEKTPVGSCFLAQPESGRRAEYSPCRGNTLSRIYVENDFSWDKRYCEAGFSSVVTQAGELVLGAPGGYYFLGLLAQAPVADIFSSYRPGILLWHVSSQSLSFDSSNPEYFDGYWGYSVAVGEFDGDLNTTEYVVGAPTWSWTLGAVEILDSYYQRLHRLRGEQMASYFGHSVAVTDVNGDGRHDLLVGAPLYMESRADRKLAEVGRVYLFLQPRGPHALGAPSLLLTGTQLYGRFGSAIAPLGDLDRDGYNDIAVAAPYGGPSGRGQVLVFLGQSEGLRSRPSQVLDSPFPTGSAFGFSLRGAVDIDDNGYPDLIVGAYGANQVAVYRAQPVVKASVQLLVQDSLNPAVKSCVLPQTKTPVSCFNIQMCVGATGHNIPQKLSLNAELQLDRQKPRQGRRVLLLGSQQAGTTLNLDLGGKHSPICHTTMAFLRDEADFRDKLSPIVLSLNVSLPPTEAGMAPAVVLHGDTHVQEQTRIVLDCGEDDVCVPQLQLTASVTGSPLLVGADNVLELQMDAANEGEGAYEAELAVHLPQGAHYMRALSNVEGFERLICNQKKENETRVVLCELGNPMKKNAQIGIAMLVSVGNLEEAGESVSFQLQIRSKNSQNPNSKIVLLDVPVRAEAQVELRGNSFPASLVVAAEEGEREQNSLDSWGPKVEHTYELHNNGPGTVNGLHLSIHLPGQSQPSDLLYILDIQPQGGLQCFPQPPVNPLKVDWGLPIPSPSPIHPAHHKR
T1 sequence (P08514 891-1039 limits assumed): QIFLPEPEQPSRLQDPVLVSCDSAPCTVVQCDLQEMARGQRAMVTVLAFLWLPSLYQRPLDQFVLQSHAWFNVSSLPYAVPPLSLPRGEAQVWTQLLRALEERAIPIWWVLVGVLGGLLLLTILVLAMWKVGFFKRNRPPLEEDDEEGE
T1 sequence (P05106 27-788): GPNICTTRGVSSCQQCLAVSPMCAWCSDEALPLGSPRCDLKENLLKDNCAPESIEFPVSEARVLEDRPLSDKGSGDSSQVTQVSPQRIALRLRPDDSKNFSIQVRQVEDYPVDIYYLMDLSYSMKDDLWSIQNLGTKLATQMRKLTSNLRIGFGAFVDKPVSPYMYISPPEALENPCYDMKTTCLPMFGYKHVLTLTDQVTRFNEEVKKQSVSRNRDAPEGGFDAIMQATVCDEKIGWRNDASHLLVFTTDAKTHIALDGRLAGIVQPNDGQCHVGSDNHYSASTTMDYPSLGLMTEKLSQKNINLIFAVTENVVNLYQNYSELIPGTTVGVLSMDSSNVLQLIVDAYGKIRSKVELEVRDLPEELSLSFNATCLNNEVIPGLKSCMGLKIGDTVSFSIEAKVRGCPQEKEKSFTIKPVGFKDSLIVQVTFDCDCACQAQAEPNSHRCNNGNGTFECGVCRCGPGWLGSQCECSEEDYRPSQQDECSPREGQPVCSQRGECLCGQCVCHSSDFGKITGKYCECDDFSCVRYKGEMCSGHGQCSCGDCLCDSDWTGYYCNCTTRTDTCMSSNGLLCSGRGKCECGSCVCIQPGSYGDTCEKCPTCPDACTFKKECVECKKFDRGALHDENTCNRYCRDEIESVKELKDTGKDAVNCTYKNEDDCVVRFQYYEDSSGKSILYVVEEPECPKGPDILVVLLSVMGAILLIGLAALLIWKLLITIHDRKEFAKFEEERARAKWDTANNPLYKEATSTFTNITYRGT

A word on the pIC50: it is the negative decadic logarithm of the IC50, by convention in mol/L. For orientation: inhibition means the percentage by which the read-out fell short of the control. A higher inhibition goes with a strong effect. For the compound `CC(C)[C@H](NC(=O)[C@H](CC(=O)O)NC(=O)c1cccc(CCNC(=N)N)c1)C(=O)O` [N-[3-(2-guanidinoethyl)benzoyl]-L-aspartyl-L-valine], the results for the pIC50 (in assay [1] (setting [2]); in the assay with Human Platelets (Platelet)) were 3.94 and 4.48, respectively. In the assay on Human Platelets (Platelet), the inhibition at 25 µM was found to be 37%.

`CC(C)[C@H](NC(=O)[C@H](CC(=O)O)NC(=O)c1ccc(NC(=N)N)cc1)C(=O)O` [4-Guanidinobenzoyl-L-aspartyl-L-valine, N-(4-quanidinobenzoyl)-L-aspartyl-L-valine]: the “Inhibition of Fibrinogen Mediated Platelet Aggregation % inhibition at 25 μM” value with Human Platelets turned out to be 33.0%.

In the case of `CC(C)[C@H](NC(=O)[C@H](CC(=O)O)NC(=O)c1cccc(CNC(=N)N)c1)C(=O)O` [N-(3-guanidinomethylbenzoyl)-L-aspartyl-L-valine], the pIC50 in assay [1] (setting [3]) is at most 4.30. Moreover, in the assay on Human Platelets (Platelet), the inhibition at 25 µM stood at 53% and the pIC50 was 4.52.

As for `CC(C)[C@H](NC(=O)[C@H](CC(=O)O)NC(=O)Cc1ccc(NC(=N)N)cc1)C(=O)O` [N-(4-guanidinophenylacetoyl)-L-aspartyl-L-valine], the pIC50 in assay [1] (setting [2]) is 4.70. This compound also registered an inhibition at 25 µM in the assay on Human Platelets (Platelet) of 43%.

Consider `CC(C)[C@H](NC(=O)[C@H](CC(=O)O)NC(=O)C=Cc1ccc(NC(=N)N)cc1)C(=O)O` [4-Guanidino cinnamoyl-L-aspartyl-L-valine], for which the pIC50 in assay [1] (setting [2]) was 6.60. Moreover, in the assay with Human Platelets (Platelet), testing at 25 µM gave an inhibition of 25% and the pIC50 is 5.55.

Consider `CC(C)[C@H](NC(=O)[C@H](CC(=O)O)NC(=O)CCc1ccc(NC(=N)N)cc1)C(=O)O` [3-(4-guanidinophenyl)propanoyl-L-aspartyl-L-valine], for which, in assay [1] (setting [2]), the pIC50 was 5.35. In the assay on Human Platelets (Platelet), the inhibition at 25 µM came out at 65% and the pIC50 is 4.85.

In turn, `CC(C)[C@H](NC(=O)[C@H](CC(=O)O)NC(=O)Cc1cccc(CNC(=N)N)c1)C(=O)O` [3-Guanidinomethylphenylacetoyl-L-aspartyl-L-valine] had an inhibition at 25 µM with Human Platelets (Platelet) of 15.2%.

As to `CC(C)[C@H](NC(=O)[C@H](CC(=O)O)NC(=O)c1ccc(CCNC(=N)N)cc1)C(=O)O` [4-(2-quanidinoethyl)benzoyl]-L-aspartyl-L-valine], the pIC50 in assay [1] (setting [2]) was 4.96. In addition, in the assay with Human Platelets, the “Inhibition of Fibrinogen Mediated Platelet Aggregation % inhibition at 25 μM” value amounted to 85.0% and the negative logarithm of the IC50 (pIC50) was 5.11.

Turning to `CC(C)[C@H](NC(=O)[C@H](CC(=O)O)NC(=O)c1ccc(CNC(=N)N)cc1)C(=O)O` [N-(4-guanidinomethylbenzoyl)-L-aspartyl-L-valine], in assay [1] (setting [2]), the pIC50 was 4.66. In the assay on Human Platelets (Platelet), this compound registered an inhibition at 25 µM of 16%.

On to `CC(C)[C@H](NC(=O)[C@H](CC(=O)O)NC(=O)c1ccc(CCCNC(=N)N)cc1)C(=O)O` [4-(3-Guanidinopropyl)benzoyl-L-aspartyl-L-valine], for which, in the assay with Human Platelets (Platelet), testing at 25 µM gave an inhibition of 83.3% and the pIC50 was 5.12.

Consider `CC(C)[C@H](NC(=O)[C@H](CC(=O)O)NC(=O)c1cccc(NC(=N)N)c1)C(=O)O` [3-Guanidinobenzoyl-L-aspartyl-L-valine, N-(3-guanidinobenzoyl)-L-aspartyl-L-valine], for which the pIC50 in assay [1] (setting [3]) was at most 4.30. The same compound yielded an inhibition at 25 µM in the assay on Human Platelets (Platelet) of 6.3%.

For the compound `CC(C)[C@H](NC(=O)[C@H](CC(=O)O)NC(=O)c1cccc(CCCNC(=N)N)c1)C(=O)O` [3-(3-Guanidinopropyl)benzoyl-L-aspartyl-L-valine], the negative logarithm of the IC50 (pIC50) in assay [1] (setting [3]) is at most 4.30. The inhibition at 25 µM in the assay on Human Platelets (Platelet) was determined as 52%.

Take `CC(C)[C@H](NC(=O)[C@H](CC(=O)O)NC(=O)Cc1ccc(CNC(=N)N)cc1)C(=O)O` [4-Guanidinomethyl phenylacetoyl-L-aspartyl-L-valine]: in assay [1] (setting [3]), the pIC50 was at most 4.30. Moreover, the inhibition at 25 µM with Human Platelets (Platelet) was 42%.
